Measurements as given in patent publication US9187472B2 (AbbVie Inc., priority 2012, dated 2015).

The compounds below were run on PC3 cells (assay: NAMPT Cell Proliferation Assay). Settings: Homo sapiens, PC-3, 120 h, 5 days incubation, cell viability by Cell Titer Glo.
Type: cell-based
Method in brief: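 PC3 cells were plated at 500 cells/well in RPMI with 10% heat-inactivated FBS, left to attach overnight, then given compounds in 10-fold dilutions from 10 μM to 1×10^−5 μM. After 5 days at 37° C and 5% CO2, viability was read by luminescence and IC50s came from sigmoidal fits of percent inhibition.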

Compared with `O=C(NCc1ccn2ccnc2c1)Nc1ccc(C2CCN(C(=O)c3nc4c(s3)CCCC4)CC2)cc1` [Example 1053, 1-(imidazo[1,2-a]pyridin-7-ylmethyl)-3-{4-[1-(4,5,6,7-tetrahydro-1,3-benzothiazol-2-ylcarbonyl)piperidin-4-yl]phenyl}urea], `O=C(NCc1ccn2ccnc2c1)Nc1ccc(C2CCN(C(=O)c3cnc(C4CC4)s3)CC2)cc1` [Example 1121, 1-(4-{1-[(2-cyclopropyl-1,3-thiazol-5-yl)carbonyl]piperidin-4-yl}phenyl)-3-(imidazo[1,2-a]pyridin-7-ylmethyl)urea] is 2.5-fold higher in IC50: 3.41 nM for the first, 8.42 nM for the second. The first is the more potent here.

`CC(C)c1ncncc1C(=O)N1CCC(c2ccc(C(=O)NCc3ccn4ccnc4c3)cc2)CC1` [Example 1104, N-(imidazo[1,2-a]pyridin-7-ylmethyl)-4-(1-{[4-(propan-2-yl)pyrimidin-5-yl]carbonyl}piperidin-4-yl)benzamide] and `N#Cc1cnc(C(=O)N2CCC(c3ccc(C(=O)NCc4ccn5ccnc5c4)cc3)CC2)c(Cl)c1` [Example 1089, 4-{1-[(3-chloro-5-cyanopyridin-2-yl)carbonyl]piperidin-4-yl}-N-(imidazo[1,2-a]pyridin-7-ylmethyl)benzamide] are within 1.5-fold of each other in IC50: 6.96 nM for the first, 8.27 nM for the second.

Going from `Cc1cc(C(=O)N2CCC(c3ccc(C(=O)NCc4ccn5ccnc5c4)cc3)CC2)n(C(C)(C)C)n1` [Example 981, 4-{1-[(1-tert-butyl-3-methyl-1H-pyrazol-5-yl)carbonyl]piperidin-4-yl}-N-(imidazo[1,2-a]pyridin-7-ylmethyl)benzamide] to `Cc1cc(C(=O)N2CCC(c3ccc(NC(=O)NCc4ccn5ccnc5c4)cc3)CC2)n(C(C)(C)C)n1` [Example 1029, 1-(4-{1-[(1-tert-butyl-3-methyl-1H-pyrazol-5-yl)carbonyl]piperidin-4-yl}phenyl)-3-(imidazo[1,2-a]pyridin-7-ylmethyl)urea], the IC50 falls from 6.54 nM to 0.272 nM (24-fold). The second is the more potent here.

First: O=C(NCc1ccn2ccnc2c1)c1ccc(C2CCN(C(=O)c3ccc4ccncc4c3)CC2)cc1 [Example 988, N-(imidazo[1,2-a]pyridin-7-ylmethyl)-4-[1-(isoquinolin-7-ylcarbonyl)piperidin-4-yl]benzamide]
Second: O=C(NCc1ccn2ccnc2c1)c1ccc(C2CCN(C(=O)c3ccc4occc4c3)CC2)cc1 [Example 1112, 4-[1-(1-benzofuran-5-ylcarbonyl)piperidin-4-yl]-N-(imidazo[1,2-a]pyridin-7-ylmethyl)benzamide]
The IC50 of the first is 3.7-fold higher: 60.1 nM for the first, 16.4 nM for the second.

`CCc1ccc(C(=O)N2CCC(c3ccc(NC(=O)NCc4ccn5ccnc5c4)cc3)CC2)nc1` [Example 1125, 1-(4-{1-[(5-ethylpyridin-2-yl)carbonyl]piperidin-4-yl}phenyl)-3-(imidazo[1,2-a]pyridin-7-ylmethyl)urea] and `O=C(NCc1ccn2ccnc2c1)Nc1ccc(C2CCN(C(=O)c3cccnc3Cl)CC2)cc1` [Example 938, 1-(4-{1-[(2-chloropyridin-3-yl)carbonyl]piperidin-4-yl}phenyl)-3-(imidazo[1,2-a]pyridin-7-ylmethyl)urea] are within 1.5-fold of each other in IC50: 4.77 nM for the first, 6.27 nM for the second.

Going from `CC(C)(C)CC(=O)N1CCC(c2ccc(NC(=O)NCc3ccn4ccnc4c3)cc2)CC1` [Example 940, 1-{4-[1-(3,3-dimethylbutanoyl)piperidin-4-yl]phenyl}-3-(imidazo[1,2-a]pyridin-7-ylmethyl)urea] to `CC(C)=CC(=O)N1CCC(c2ccc(NC(=O)NCc3ccn4ccnc4c3)cc2)CC1` [Example 939, 1-(imidazo[1,2-a]pyridin-7-ylmethyl)-3-{4-[1-(3-methylbut-2-enoyl)piperidin-4-yl]phenyl}urea], the IC50 rises from 0.691 nM to > 10000 nM. The first is the more potent here.

First: N#Cc1ccc(F)c(C(=O)N2CCC(c3ccc(NC(=O)NCc4ccn5ccnc5c4)cc3)CC2)c1 [Example 1033, 1-{4-[1-(5-cyano-2-fluorobenzoyl)piperidin-4-yl]phenyl}-3-(imidazo[1,2-a]pyridin-7-ylmethyl)urea]
Second: COc1ccc(C(=O)N2CCC(c3ccc(NC(=O)NCc4ccn5ccnc5c4)cc3)CC2)c(OC)c1 [Example 944, 1-{4-[1-(2,4-dimethoxybenzoyl)piperidin-4-yl]phenyl}-3-(imidazo[1,2-a]pyridin-7-ylmethyl)urea]
The IC50 of the first is 1.7-fold lower: 1.97 nM for the first, 3.36 nM for the second. The first is the more potent here.

Compared with `O=C(NCc1ccc2ncnn2c1)c1ccc(C2CCN(C(=O)c3cc(F)ccc3F)CC2)s1` [Example 835, 5-[1-(2,5-difluorobenzoyl)piperidin-4-yl]-N-([1,2,4]triazolo[1,5-a]pyridin-6-ylmethyl)thiophene-2-carboxamide], `O=C(NCc1ccc2ncnn2c1)c1ccc(C2CCN(C(=O)c3cc(F)cc(F)c3)CC2)s1` [Example 836, 5-[1-(3,5-difluorobenzoyl)piperidin-4-yl]-N-([1,2,4]triazolo[1,5-a]pyridin-6-ylmethyl)thiophene-2-carboxamide] is 17-fold higher in IC50: 3.95 nM for the first, 68.3 nM for the second. The first is the more potent here.

Compared with `O=C(NCc1ccn2ccnc2c1)Nc1ccc(C2CCN(C(=O)c3ccccc3)CC2)cc1F` [Example 1069, 1-[4-(1-benzoylpiperidin-4-yl)-2-fluorophenyl]-3-(imidazo[1,2-a]pyridin-7-ylmethyl)urea], `Cn1ncc2ccc(C(=O)N3CCC(c4ccc(NC(=O)NCc5ccn6ccnc6c5)cc4)CC3)cc21` [Example 1123, 1-(imidazo[1,2-a]pyridin-7-ylmethyl)-3-(4-{1-[(1-methyl-1H-indazol-6-yl)carbonyl]piperidin-4-yl}phenyl)urea] is 5.8-fold higher in IC50: 1.23 nM for the first, 7.11 nM for the second.

Going from `CCc1c(C(=O)N2CCC(c3ccc(C(=O)NCc4ccn5ccnc5c4)cc3)CC2)nnn1CC` [Example 1091, 4-{1-[(1,5-diethyl-1H-1,2,3-triazol-4-yl)carbonyl]piperidin-4-yl}-N-(imidazo[1,2-a]pyridin-7-ylmethyl)benzamide] to `C/C=C(\C)C(=O)N1CCC(c2ccc(C(=O)NCc3ccn4ccnc4c3)cc2)CC1` [Example 935, N-(imidazo[1,2-a]pyridin-7-ylmethyl)-4-{1-[(2E)-2-methylbut-2-enoyl]piperidin-4-yl}benzamide], the IC50 rises from 4.19 nM to 10.3 nM (2.5-fold).

Compared with `O=C(NCc1ccc2ncnn2c1)c1ccc(C2CCN(C(=O)c3ccccn3)CC2)s1` [Example 853, 5-[1-(pyridin-2-ylcarbonyl)piperidin-4-yl]-N-([1,2,4]triazolo[1,5-a]pyridin-6-ylmethyl)thiophene-2-carboxamide], `O=C(NCc1cn2ccnc2cn1)c1ccc(C2CCN(C(=O)c3ccccc3F)CC2)s1` [Example 827, 5-[1-(2-fluorobenzoyl)piperidin-4-yl]-N-(imidazo[1,2-a]pyrazin-6-ylmethyl)thiophene-2-carboxamide] is 16-fold lower in IC50: 9.96 nM for the first, 0.625 nM for the second.

First: COc1ccccc1CC(=O)N1CCC(c2ccc(C(=O)NCc3ccn4ccnc4c3)cc2)CC1 [Example 921, N-(imidazo[1,2-a]pyridin-7-ylmethyl)-4-{1-[(2-methoxyphenyl)acetyl]piperidin-4-yl}benzamide]
Second: O=C(NCc1ccn2ccnc2c1)c1ccc(C2CCN(C(=O)c3coc4ccccc34)CC2)cc1 [Example 1098, 4-[1-(1-benzofuran-3-ylcarbonyl)piperidin-4-yl]-N-(imidazo[1,2-a]pyridin-7-ylmethyl)benzamide]
The IC50 of the first is 16-fold higher: 157 nM for the first, 9.55 nM for the second.

Compared with `COc1cccc(OC)c1C(=O)N1CCC(c2ccc(NC(=O)NCc3ccn4ccnc4c3)cc2)CC1` [Example 949, 1-{4-[1-(2,6-dimethoxybenzoyl)piperidin-4-yl]phenyl}-3-(imidazo[1,2-a]pyridin-7-ylmethyl)urea], `CC(C(=O)N1CCC(c2ccc(NC(=O)NCc3ccn4ccnc4c3)cc2)CC1)n1ccc(C2CC2)n1` (stereo not shown) [Example 1142, 1-(4-{1-[2-(3-cyclopropyl-1H-pyrazol-1-yl)propanoyl]piperidin-4-yl}phenyl)-3-(imidazo[1,2-a]pyridin-7-ylmethyl)urea] is 8.8-fold lower in IC50: 25.4 nM for the first, 2.9 nM for the second. The second is the more potent here.

First: N#Cc1cc(F)c(C(=O)N2CCC(c3ccc(C(=O)NCc4ccn5ccnc5c4)cc3)CC2)c(F)c1 [Example 1095, 4-[1-(4-cyano-2,6-difluorobenzoyl)piperidin-4-yl]-N-(imidazo[1,2-a]pyridin-7-ylmethyl)benzamide]
Second: N#Cc1csc(C(=O)N2CCC(c3ccc(C(=O)NCc4ccn5ccnc5c4)cc3)CC2)c1 [Example 1110, 4-{1-[(4-cyanothiophen-2-yl)carbonyl]piperidin-4-yl}-N-(imidazo[1,2-a]pyridin-7-ylmethyl)benzamide]
The IC50 of the first is 25-fold lower: 4.45 nM for the first, 111 nM for the second.

`N#CC1(C(=O)N2CCC(c3ccc(NC(=O)NCc4ccn5ccnc5c4)cc3)CC2)CCCC1` [Example 1030, 1-(4-{1-[(1-cyanocyclopentyl)carbonyl]piperidin-4-yl}phenyl)-3-(imidazo[1,2-a]pyridin-7-ylmethyl)urea] and `O=C(NCc1ccn2ccnc2c1)c1ccc(C2CCN(C(=O)C3(c4ccccn4)CC3)CC2)cc1` [Example 966, N-(imidazo[1,2-a]pyridin-7-ylmethyl)-4-(1-{[1-(pyridin-2-yl)cyclopropyl]carbonyl}piperidin-4-yl)benzamide] are within 1.5-fold of each other in IC50: 2.04 nM for the first, 2.09 nM for the second.

Going from `Cn1nc(C2CC2)cc1C(=O)N1CCC(c2ccc(C(=O)NCc3ccn4ccnc4c3)cc2)CC1` [Example 960, 4-{1-[(3-cyclopropyl-1-methyl-1H-pyrazol-5-yl)carbonyl]piperidin-4-yl}-N-(imidazo[1,2-a]pyridin-7-ylmethyl)benzamide] to `O=C(NCc1ccn2ccnc2c1)c1ccc(C2CCN(C(=O)c3cc4ccccn4n3)CC2)cc1` [Example 1111, N-(imidazo[1,2-a]pyridin-7-ylmethyl)-4-[1-(pyrazolo[1,5-a]pyridin-2-ylcarbonyl)piperidin-4-yl]benzamide], the IC50 rises from 6.13 nM to 62 nM (10-fold).

First: CC(C)CC(=O)N1CCC(c2ccc(C(=O)NCc3cn4ccnc4cn3)s2)CC1 [Example 838, N-(imidazo[1,2-a]pyrazin-6-ylmethyl)-5-[1-(3-methylbutanoyl)piperidin-4-yl]thiophene-2-carboxamide]
Second: COCCn1nc(C2CC2)cc1-c1ccc(C(=O)NCc2ccn3ccnc3c2)s1 [Example 893, 5-[3-cyclopropyl-1-(2-methoxyethyl)-1H-pyrazol-5-yl]-N-(imidazo[1,2-a]pyridin-7-ylmethyl)thiophene-2-carboxamide]
The IC50 of the first is 4.1-fold higher: 2.7 nM for the first, 0.662 nM for the second.
